Converted amounts (≈) assume the structure as drawn. “Also recorded” adds a separate entry of the source. Read-outs that look alike come from different tables or passages of the source.
Experiments:
P. acnes MTCC 1951 [1] = assay: MIC by micro broth dilution (Alamar blue), clindamycin-susceptible P. acnes; type: cell-based, Propionibacterium acnes; settings: for MIC: Cutibacterium acnes, MTCC1951; for Activity / bacterial killing, dose response curve (in words): clindamycin-susceptible MTCC 1951
Procedure, shortened: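 P. acnes in BHI broth, inoculum adjusted to 0.5 McFarland and diluted 100-fold, exposed to serially diluted compound at 37° C. for 48-72 h under anaerobic conditions. Growth read by OD at 595 nm; MIC recorded after Alamar blue addition.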

E. coli DNA gyrase = target: T1, E. coli DNA gyrase (Escherichia coli, UniProt P0AES4+P0AES6); assay: DNA gyrase super-coiling activity assay (Topogen kit, relaxed pHOT1 plasmid); type: biochemical; settings: for Super-coiled band (percentage of DNA super-coiling): untreated control 100%; for Inhibition of super-coiling activity of DNA gyrase (in words): 1 μM and 2.5 μM
T1 construct: purchased Topogen Inc
Procedure: DNA super-coiling activity was assayed using DNA gyrase assay kit (Topogen Inc.) with relaxed pHOT1 E. coli plasmid DNA according to manufacturer's protocol. The standard reaction mixture (20 μl) contained 35 mM Tris-HCl (pH 7.5), 24 mM KCl, 4 mM MgCl2, 2 mM dithiothreitol, 1.8 mM spermidine, 1 mM ATP, 6.5% glycerol, 0.1 mg/ml bovine serum albumin (BSA), 10 μg/ml relaxed pHOT1 plasmid DNA and 1 U of DNA gyrase. The reaction mixture was incubated at 37° C. for 1 h in presence of selected compounds/fluoroquinolone at different concentrations. The reaction was terminated by addition of ⅕ volume of loading dye (4 μl) followed by proteinase K (50 μg/ml) and again incubated at 37° C. for half an hour. 20 μl chloroform/isoamyl alcohol (24:1) was added to each tube and vortexed briefly. Thereafter, the blue aqueous phase was separated out and analyzed by 1% agarose gel electrophoresis. The gel was stained by ethidium bromide for half an hour and destained with water for 15 mins. The gel was then visualized in a trans-illuminator and photographed.

P. acnes MTCC 1951 [2] = type: cell-based, Propionibacterium acnes; settings: for MPC/MIC: ratio against P. acnes
Procedure: 3 to 4 Petri plates containing 48 h P. acnes culture was suspended in sterile Phosphate buffer saline, PBS (pH 7.2) and turbidity was adjusted to optical density of 1 at 600 nm (10^9 cells/ml). 50 ml of this culture suspension was centrifuged at 4000 rpm for 40 min. The supernatant was discarded and pellet resuspended in 250 μl of sterile PBS. 50 μl of these cell suspensions (10^10 cells) was spread over the plates containing various concentrations of antibiotics (around MIC range). Plates were incubated at 37° C. for 48 h and the lowest concentration of the drug that allowed no growth was taken as its MPC.

IL-1α = assay: P. acnes-induced IL-1α release in THP-1 cells (ELISA); type: cell-based; settings: 25 μg/ml, 100% = P. acnes induced cells
Procedure: Method: Preparation of Stimulant for Inflammation: P. acnes culture suspension was prepared in PBS and the cell number in the suspension was adjusted to approximately 5×10^8 CFU/ml by measuring the cell density using a Densimat. The bacterial suspension was then heat killed at 80° C. for 30 min and stored at −80° C. until further use.
Cells were seeded in a 96-well format (2×10^5 THP-1 cells per well) in media containing 10% FBS. The cells were stimulated to induce inflammatory cytokines using 3 McFarland equivalent heat-killed P. acnes. Cells in control wells were treated with PBS. One hour after induction with P. acnes, test agents were added to the induced cells at appropriate concentrations to be tested (compound 91 at 25 μg/ml). The plates were incubated at 37° C. for 24 hours. After 24 h, the plates were centrifuged to pellet the cells and the supernatants were collected. The cell culture supernatants thus obtained were analyzed for levels of cytokines (IL-1α, IL-1β, IL-6 and IL-8) by ELISA using R&D Systems kits for individual cytokines following the manufacturer's instructions.

T1 sequence (P0AES4 whole entry, one chain of several): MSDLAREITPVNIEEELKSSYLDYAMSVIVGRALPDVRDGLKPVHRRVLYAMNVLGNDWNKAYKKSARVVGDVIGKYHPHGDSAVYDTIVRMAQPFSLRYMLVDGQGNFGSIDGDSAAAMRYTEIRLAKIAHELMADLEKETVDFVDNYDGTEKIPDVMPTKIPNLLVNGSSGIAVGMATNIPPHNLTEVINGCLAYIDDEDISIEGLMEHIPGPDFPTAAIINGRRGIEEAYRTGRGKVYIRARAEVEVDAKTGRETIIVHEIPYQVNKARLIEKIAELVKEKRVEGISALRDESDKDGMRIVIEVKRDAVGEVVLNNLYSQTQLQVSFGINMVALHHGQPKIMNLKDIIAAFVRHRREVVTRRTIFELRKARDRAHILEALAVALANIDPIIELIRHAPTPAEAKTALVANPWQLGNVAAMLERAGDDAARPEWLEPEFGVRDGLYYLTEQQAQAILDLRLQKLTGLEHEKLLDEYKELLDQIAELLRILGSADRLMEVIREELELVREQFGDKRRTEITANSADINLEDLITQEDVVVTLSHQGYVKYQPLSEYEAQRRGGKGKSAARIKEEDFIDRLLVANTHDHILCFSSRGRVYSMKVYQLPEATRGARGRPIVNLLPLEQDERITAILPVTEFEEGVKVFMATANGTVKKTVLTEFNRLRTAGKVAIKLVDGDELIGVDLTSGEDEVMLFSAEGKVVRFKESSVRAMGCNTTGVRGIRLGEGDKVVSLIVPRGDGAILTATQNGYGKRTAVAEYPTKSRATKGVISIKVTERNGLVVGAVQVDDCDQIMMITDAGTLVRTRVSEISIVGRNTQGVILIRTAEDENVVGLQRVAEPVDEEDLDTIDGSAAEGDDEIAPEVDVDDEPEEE

Cc1ncc([N+](=O)[O-])n1CC(O)CN1CCN(c2cc3c(cc2F)c(=O)c(C(=O)O)c2n3C(C)S2)CC1 (stereo not shown) [Compound 91, 6-Fluoro-7-{4-[2-hydroxy-3-(2-methyl-5-nitro-imidazol-1-yl)-propyl]-piperazin-1-yl}-1-methyl-4-oxo-4H-2-thia-8b-aza-cyclobuta[a]naphthalene-3-carboxylic acid]
MIC (P. acnes MTCC 1951 [1]; Table 7, against P. acnes, read-out: MIC): 0.2 µg/mL (≈ 0.376 µM)
MIC (P. acnes MTCC 1951 [1]; read-out: MIC Susceptible P. acnes (1951) strain): 0.2 µg/mL (≈ 0.376 µM)
Activity / bacterial killing, dose response curve (in words) (P. acnes MTCC 1951 [1]): highly efficacious bacterial killing profile
Activity / bacterial killing, dose response curve (in words) (P. acnes MTCC 1951 [1]; listed as compound 91): lower MIC value and faster bacterial killing profile
Super-coiled band (percentage of DNA super-coiling) (E. coli DNA gyrase; 0.25 μM): around 54.3%
Inhibition of super-coiling activity of DNA gyrase (in words) (E. coli DNA gyrase): best gyrase inhibiting activity; also recorded: greater efficacy
Inhibition of super-coiling activity of DNA gyrase (in words) (E. coli DNA gyrase; listed as compound 91): able to inhibit the super-coiling activity; also recorded: highly potent; also recorded: better efficacy; also recorded: most potent
Super-coiled band (percentage of DNA super-coiling) (E. coli DNA gyrase; 5 μM): about 2%
MPC (P. acnes MTCC 1951 [2]; P. acnes, 10^10 cells inoculum): 0.3 to 0.6 µg/mL
MPC/MIC (P. acnes MTCC 1951 [2]): 1.5-3
MPC/MIC (P. acnes MTCC 1951 [2]; listed as compound 91): 1.5
Percentage reduction in P. acnes induced IL-1α release (IL-1α): 27.51%
Percentage reduction in P. acnes induced IL-1α release (IL-1α; listed as compound 91): 20-25%
